The values that follow come from patent publication US9663528B2, “Substituted 1,2,3,4,6,8,12,12a-octahydro-1,4-methanodipyrido[1,2-a:1',2'-d]pyrazines and methods for treating viral infections” (priority 2012, dated 2017).

The nature of one series: Cytotoxicity (CC50) in MT-4 cells, mock-infected, CellTiter-Glo. The following applies: human. The method, then:
For the antiviral assay utilizing MT4 cells, 0.4 μL of […] test concentration of 3-fold serially diluted compound in DMSO was added to 40 μL of cell growth medium (RPMI 1640, 10% FBS, 1% penicilline/Streptomycine, 1% L-Glutamine, 1% HEPES) in each well of 384-well assay plates (10 concentrations) in quidruplicate.
1 mL aliquots of 2×10^6 MT4 cells are pre-infected for 1 and 3 hours respectively at 37° C. with 25 μL (MT4) or of either cell growth medium (mock-infected) or a fresh 1:250 dilution of an HIV-IIIb concentrated ABI stock (0.004 m.o.i. for MT4 cells). Infected and uninfected cells are diluted in cell growth medium and 35 μL of 2000 (for MT4) cells is added to each well of the assay plates.
Assay plates were then incubated in a 37° C. incubator. After 5 days of incubation, 25 μL of 2× concentrated CellTiter-Glo™ Reagent (catalog #G7573, Promega Biosciences, Inc., Madison, Wis.) was added to each well of the assay plate. Cell lysis was carried out by incubating at room temperature for 2-3 minutes, and then chemiluminescence was read using the Envision reader (PerkinElmer).
`O=C(NC1(c2ccc(F)cc2F)CCCCC1)c1cn2c(c(O)c1=O)C(=O)N1C(C2)O[C@H]2CC[C@@H]1C2` (stereo partly drawn) [Compound 34, (2S,5R)-N-(1-(2,4-difluorophenyl)cyclohexyl)-8-hydroxy-7,9-dioxo-2,3,4,5,7,9,13,13a-octahydro-2,5-methanopyrido[1′,2′:4,5]pyrazino[2,1-b][1,3]oxazepine-10-carboxamide] came in with a CC50 at 5 days of 3580 nM.

Still in this series, the particulars now being: human, CC50 nM in MT-4.
For `O=C(NC1(c2ccc(F)cc2F)CCOCC1)c1cn2c(c(O)c1=O)C(=O)N1C(C2)O[C@H]2CC[C@@H]1C2` (stereo partly drawn) [Compound 35, (2S,5R)-N-(4-(2,4-difluorophenyl)tetrahydro-2H-pyran-4-yl)-8-hydroxy-7,9-dioxo-2,3,4,5,7,9,13,13a-octahydro-2,5-methanopyrido[1′,2′:4,5]pyrazino[2,1-b][1,3]oxazepine-10-carboxamide], the CC50 at 5 days came out at 15500 nM.

`O=C(NCc1cc(F)cc(F)c1)c1cn2c(c(O)c1=O)C(=O)N1[C@@H]3CC[C@@H](C3)O[C@H]1C2` [Compound 24, (2S,5R,13aS)-N-(3,5-difluorobenzyl)-8-hydroxy-7,9-dioxo-2,3,4,5,7,9,13,13a-octahydro-2,5-methanopyrido[1′,2′:4,5]pyrazino[2,1-b][1,3]oxazepine-10-carboxamide] yielded a CC50 at 5 days of 12100 nM.

Regarding `O=C(NCc1cc(Cl)c(F)cc1F)c1cn2c(c(O)c1=O)C(=O)N1[C@H]3CC[C@H](C3)O[C@@H]1C2` [Compound 65, (2R,5S,13aR)-N-(5-chloro-2,4-difluorobenzyl)-8-hydroxy-7,9-dioxo-2,3,4,5,7,9,13,13a-octahydro-2,5-methanopyrido[1′,2′:4,5]pyrazino[2,1-b][1,3]oxazepine-10-carboxamide], the CC50 at 5 days was 2510 nM.

Turning to `C[C@@H](NC(=O)c1cn2c(c(O)c1=O)C(=O)N1[C@@H]3CC[C@H](C3)O[C@@H]1C2)c1c(F)cc(F)cc1F` [Compound 78, (2R,13aR)-8-hydroxy-7,9-dioxo-N—((R)-1-(2,4,6-trifluorophenyl)ethyl)-2,3,4,5,7,9,13,13a-octahydro-2,5-methanopyrido[1′,2′:4,5]pyrazino[2,1-b][1,3]oxazepine-10-carboxamide], the CC50 at 5 days is 3200 nM.

`O=C(NCc1ccc(F)cc1OC1CC1)c1cn2c(c(O)c1=O)C(=O)N1[C@@H]3CC[C@@H](C3)O[C@H]1C2` [Compound 52, (2S,5R,13aS)-N-(2-cyclopropoxy-4-fluorobenzyl)-8-hydroxy-7,9-dioxo-2,3,4,5,7,9,13,13a-octahydro-2,5-methanopyrido[1′,2′:4,5]pyrazino[2,1-b][1,3]oxazepine-10-carboxamide] returned a CC50 at 5 days of 12900 nM.

`C[C@H](NC(=O)c1cn2c(c(O)c1=O)C(=O)N1[C@@H]3CC[C@@H](C3)O[C@H]1C2)c1ccc(F)cc1` [Compound 21, (2S,5R,13aS)-N—((S)-1-(4-fluorophenyl)ethyl)-8-hydroxy-7,9-dioxo-2,3,4,5,7,9,13,13a-octahydro-2,5-methanopyrido[1′,2′:4,5]pyrazino[2,1-b][1,3]oxazepine-10-carboxamide]: the CC50 at 5 days turned out to be 13000 nM.

For the compound `C[C@H](NC(=O)c1cn2c(c(O)c1=O)C(=O)N1[C@H]3CC[C@H](C3)O[C@@H]1C2)c1ccc(F)cc1` [Compound 22, (2R,5S,13aR)-N—((S)-1-(4-fluorophenyl)ethyl)-8-hydroxy-7,9-dioxo-2,3,4,5,7,9,13,13a-octahydro-2,5-methanopyrido[1′,2′:4,5]pyrazino[2,1-b][1,3]oxazepine-10-carboxamide], the CC50 at 5 days came out at 4430 nM.

`O=C(NCc1ncccc1C(F)(F)F)c1cn2c(c(O)c1=O)C(=O)N1[C@@H]3CC[C@@H](C3)O[C@H]1C2` [Compound 49, (2S,5R,13aS)-8-hydroxy-7,9-dioxo-N-((3-(trifluoromethyl)pyridin-2-yl)methyl)-2,3,4,5,7,9,13,13a-octahydro-2,5-methanopyrido[1′,2′:4,5]pyrazino[2,1-b][1,3]oxazepine-10-carboxamide] yielded a CC50 at 5 days of 52200 nM.

As to `O=C(NCc1cccc(C(F)(F)F)c1F)c1cn2c(c(O)c1=O)C(=O)N1[C@H]3CC[C@H](C3)[C@@H]1C2` [Compound 74, (1R,4S,12aR)-N-(2-fluoro-3-(trifluoromethyl)benzyl)-7-hydroxy-6,8-dioxo-1,2,3,4,6,8,12,12a-octahydro-1,4-methanodipyrido[1,2-a:1′,2′-d]pyrazine-9-carboxamide], the CC50 at 5 days was found to be 4340 nM.

Take `O=C(NC1(c2ccc(F)cc2F)CC1)c1cn2c(c(O)c1=O)C(=O)N1C(C2)O[C@H]2CC[C@@H]1C2` (stereo partly drawn) [Compound 27, (2S,5R)-N-(1-(2,4-difluorophenyl)cyclopropyl)-8-hydroxy-7,9-dioxo-2,3,4,5,7,9,13,13a-octahydro-2,5-methanopyrido[1′,2′:4,5]pyrazino[2,1-b][1,3]oxazepine-10-carboxamide]: the CC50 at 5 days is 8750 nM.

For the compound `O=C(NCc1ncc(F)cc1F)c1cn2c(c(O)c1=O)C(=O)N1[C@H]3CC[C@H](C3)[C@@H]1C2` [Compound 76, (1R,4S,12aR)-N-((3,5-difluoropyridin-2-yl)methyl)-7-hydroxy-6,8-dioxo-1,2,3,4,6,8,12,12a-octahydro-1,4-methanodipyrido[1,2-a:1′,2′-d]pyrazine-9-carboxamide], the CC50 at 5 days was determined as 34600 nM.

`O=C(NCc1ccc(F)cc1F)c1cn2c(c(O)c1=O)C(=O)N1[C@@H]3CC[C@@H](C3)O[C@H]1C2` (racemic) [Compound 1, N-(2,4-difluorobenzyl)-8-hydroxy-7,9-dioxo-2,3,4,5,7,9,13,13a-octahydro-2,5-methanopyrido[1′,2′:4,5]pyrazino[2,1-b][1,3]oxazepine-10-carboxamide] came in with a CC50 at 5 days of 5820 nM.

Consider `O=C(NCc1ccc(F)cc1C(F)(F)F)c1cn2c(c(O)c1=O)C(=O)N1[C@H]3CC[C@H](C3)O[C@@H]1C2` [Compound 62, (2R,5S,13aR)-N-(4-fluoro-2-(trifluoromethyl)benzyl)-8-hydroxy-7,9-dioxo-2,3,4,5,7,9,13,13a-octahydro-2,5-methanopyrido[1′,2′:4,5]pyrazino[2,1-b][1,3]oxazepine-10-carboxamide], for which the CC50 at 5 days is 3490 nM.

`O=C(NCc1ccc(F)cc1OC1CC1)c1cn2c(c(O)c1=O)C(=O)N1[C@H]3CC[C@H](C3)O[C@@H]1C2` [Compound 53, (2R,5S,13aR)-N-(2-cyclopropoxy-4-fluorobenzyl)-8-hydroxy-7,9-dioxo-2,3,4,5,7,9,13,13a-octahydro-2,5-methanopyrido[1′,2′:4,5]pyrazino[2,1-b][1,3]oxazepine-10-carboxamide] returned a CC50 at 5 days of 3350 nM.

On to `C[C@H](NC(=O)c1cn2c(c(O)c1=O)C(=O)N1[C@H]3CC[C@H](C3)O[C@@H]1C2)c1ccc(F)cc1F` [Compound 14, (2R,5S,13aR)-N—((S)-1-(2,4-difluorophenyl)ethyl)-8-hydroxy-7,9-dioxo-2,3,4,5,7,9,13,13a-octahydro-2,5-methanopyrido[1′,2′:4,5]pyrazino[2,1-b][1,3]oxazepine-10-carboxamide], for which the CC50 at 5 days was 4940 nM.

`C[C@@H](NC(=O)c1cn2c(c(O)c1=O)C(=O)N1[C@H]3CC[C@H](C3)O[C@@H]1C2)c1ccc(F)cc1F` [Compound 12, (2R,5S,13aR)-N—((R)-1-(2,4-difluorophenyl)ethyl)-8-hydroxy-7,9-dioxo-2,3,4,5,7,9,13,13a-octahydro-2,5-methanopyrido[1′,2′:4,5]pyrazino[2,1-b][1,3]oxazepine-10-carboxamide] gave a CC50 at 5 days of 3340 nM.

Consider `O=C(NCc1ccc(Cl)c(F)c1)c1cn2c(c(O)c1=O)C(=O)N1[C@@H]3CC[C@@H](C3)O[C@H]1C2` [Compound 26, (2S,5R,13aS)-N-(4-chloro-3-fluorobenzyl)-8-hydroxy-7,9-dioxo-2,3,4,5,7,9,13,13a-octahydro-2,5-methanopyrido[1′,2′:4,5]pyrazino[2,1-b][1,3]oxazepine-10-carboxamide], for which the CC50 at 5 days was determined as 8840 nM.

`O=C(NCc1ccccc1)c1cn2c(c(O)c1=O)C(=O)N1[C@H]3CC[C@H](C3)[C@@H]1C2` [Compound 94, (1R,4S,12aR)-N-benzyl-7-hydroxy-6,8-dioxo-1,2,3,4,6,8,12,12a-octahydro-1,4-methanodipyrido[1,2-a:1′,2′-d]pyrazine-9-carboxamide]: the CC50 at 5 days was 51200 nM.

Consider `O=C(NCc1ccc(F)c(C(F)(F)F)c1)c1cn2c(c(O)c1=O)C(=O)N1[C@@H]3CC[C@@H](C3)O[C@H]1C2` [Compound 25, (2S,5R,13aS)-N-(4-fluoro-3-(trifluoromethyl)benzyl)-8-hydroxy-7,9-dioxo-2,3,4,5,7,9,13,13a-octahydro-2,5-methanopyrido[1′,2′:4,5]pyrazino[2,1-b][1,3]oxazepine-10-carboxamide], for which the CC50 at 5 days is 5230 nM.

Compound `O=C(NC1(c2ccc(F)cc2F)CC1)c1cn2c(c(O)c1=O)C(=O)N1C(C2)O[C@@H]2CC[C@H]1C2` (stereo partly drawn) [Compound 31, (2R,5S)-N-(1-(2,4-difluorophenyl)cyclopropyl)-8-hydroxy-7,9-dioxo-2,3,4,5,7,9,13,13a-octahydro-2,5-methanopyrido[1′,2′:4,5]pyrazino[2,1-b][1,3]oxazepine-10-carboxamide] registered a CC50 at 5 days of 4520 nM.
